Results as given in the Kinase Knowledgebase extract (Sharma et al. 2016).

Legend:
ROCK2 = ROCK2 (UniProt O75116); assay: Inhibition of ROCK2 Kinase Activity
MAPK14 = MAPK14 (UniProt Q16539); assay: Inhibition of MAPK14 Kinase Activity
EGFR = EGFR (UniProt P00533)
Sequence of EGFR (P00533 whole entry, looked up): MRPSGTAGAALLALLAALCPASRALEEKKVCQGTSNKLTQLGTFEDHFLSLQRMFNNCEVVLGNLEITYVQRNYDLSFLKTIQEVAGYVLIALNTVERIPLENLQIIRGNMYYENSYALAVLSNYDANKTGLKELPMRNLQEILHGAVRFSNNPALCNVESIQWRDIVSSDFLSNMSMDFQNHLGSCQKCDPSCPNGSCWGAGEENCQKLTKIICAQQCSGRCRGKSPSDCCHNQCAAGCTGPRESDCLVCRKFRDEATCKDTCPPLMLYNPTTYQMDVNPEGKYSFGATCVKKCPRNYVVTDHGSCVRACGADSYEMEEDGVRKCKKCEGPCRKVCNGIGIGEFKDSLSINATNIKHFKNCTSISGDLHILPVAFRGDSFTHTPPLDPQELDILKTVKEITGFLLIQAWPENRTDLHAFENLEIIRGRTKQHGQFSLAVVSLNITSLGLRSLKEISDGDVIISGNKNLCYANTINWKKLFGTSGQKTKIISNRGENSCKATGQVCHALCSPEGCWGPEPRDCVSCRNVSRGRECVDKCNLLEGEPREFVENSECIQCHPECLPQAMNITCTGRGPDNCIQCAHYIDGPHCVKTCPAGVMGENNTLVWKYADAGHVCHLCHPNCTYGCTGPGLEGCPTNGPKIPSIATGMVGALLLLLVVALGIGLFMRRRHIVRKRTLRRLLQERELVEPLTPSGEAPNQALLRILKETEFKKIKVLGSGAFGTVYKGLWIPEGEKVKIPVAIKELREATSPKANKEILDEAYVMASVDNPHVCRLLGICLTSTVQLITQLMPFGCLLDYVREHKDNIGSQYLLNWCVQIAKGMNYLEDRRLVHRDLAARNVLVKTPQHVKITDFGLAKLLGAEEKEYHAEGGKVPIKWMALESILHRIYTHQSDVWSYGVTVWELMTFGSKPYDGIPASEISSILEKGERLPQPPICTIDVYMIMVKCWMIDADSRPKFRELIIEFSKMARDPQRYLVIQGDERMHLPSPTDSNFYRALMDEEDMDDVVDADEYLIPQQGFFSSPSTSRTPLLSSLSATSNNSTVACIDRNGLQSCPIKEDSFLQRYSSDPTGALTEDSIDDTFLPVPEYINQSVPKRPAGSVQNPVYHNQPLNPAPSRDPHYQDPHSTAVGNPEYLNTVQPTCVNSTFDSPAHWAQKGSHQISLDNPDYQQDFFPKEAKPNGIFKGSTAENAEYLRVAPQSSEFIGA

Sequence of ROCK2 (O75116 whole entry, looked up): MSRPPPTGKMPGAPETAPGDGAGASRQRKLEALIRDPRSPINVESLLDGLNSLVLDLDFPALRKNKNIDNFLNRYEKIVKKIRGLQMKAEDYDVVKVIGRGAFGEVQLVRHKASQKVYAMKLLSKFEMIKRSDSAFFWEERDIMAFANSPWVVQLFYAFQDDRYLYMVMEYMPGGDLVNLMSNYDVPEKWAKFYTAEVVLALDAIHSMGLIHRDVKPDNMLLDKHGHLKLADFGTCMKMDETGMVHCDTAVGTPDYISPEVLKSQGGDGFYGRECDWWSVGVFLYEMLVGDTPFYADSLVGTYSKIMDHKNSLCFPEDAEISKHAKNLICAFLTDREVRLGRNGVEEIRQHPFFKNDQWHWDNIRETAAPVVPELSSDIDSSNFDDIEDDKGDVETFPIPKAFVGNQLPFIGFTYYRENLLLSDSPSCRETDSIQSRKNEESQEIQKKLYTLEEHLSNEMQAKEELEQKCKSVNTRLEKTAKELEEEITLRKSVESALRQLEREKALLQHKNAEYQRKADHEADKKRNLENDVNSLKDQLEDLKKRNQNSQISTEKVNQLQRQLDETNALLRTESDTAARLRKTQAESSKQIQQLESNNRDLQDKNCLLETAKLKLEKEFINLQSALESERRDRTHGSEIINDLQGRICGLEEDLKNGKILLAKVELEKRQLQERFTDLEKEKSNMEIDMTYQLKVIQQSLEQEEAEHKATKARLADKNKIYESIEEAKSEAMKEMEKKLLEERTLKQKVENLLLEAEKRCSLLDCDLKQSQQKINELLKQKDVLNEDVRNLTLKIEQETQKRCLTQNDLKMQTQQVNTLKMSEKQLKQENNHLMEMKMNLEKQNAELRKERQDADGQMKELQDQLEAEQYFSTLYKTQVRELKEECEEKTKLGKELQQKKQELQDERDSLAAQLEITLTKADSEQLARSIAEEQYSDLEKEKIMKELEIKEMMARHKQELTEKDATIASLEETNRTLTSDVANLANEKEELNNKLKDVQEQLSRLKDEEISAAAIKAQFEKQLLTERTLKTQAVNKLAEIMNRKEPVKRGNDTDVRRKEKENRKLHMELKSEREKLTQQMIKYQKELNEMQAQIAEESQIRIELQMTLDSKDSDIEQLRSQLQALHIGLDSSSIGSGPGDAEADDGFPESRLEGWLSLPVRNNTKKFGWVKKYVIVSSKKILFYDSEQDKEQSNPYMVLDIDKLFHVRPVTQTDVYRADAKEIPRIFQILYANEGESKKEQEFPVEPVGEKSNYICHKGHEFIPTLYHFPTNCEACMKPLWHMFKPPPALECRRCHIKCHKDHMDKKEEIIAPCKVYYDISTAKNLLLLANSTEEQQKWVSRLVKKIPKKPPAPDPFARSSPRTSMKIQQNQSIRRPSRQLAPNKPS
Sequence of MAPK14 (Q16539 whole entry, looked up): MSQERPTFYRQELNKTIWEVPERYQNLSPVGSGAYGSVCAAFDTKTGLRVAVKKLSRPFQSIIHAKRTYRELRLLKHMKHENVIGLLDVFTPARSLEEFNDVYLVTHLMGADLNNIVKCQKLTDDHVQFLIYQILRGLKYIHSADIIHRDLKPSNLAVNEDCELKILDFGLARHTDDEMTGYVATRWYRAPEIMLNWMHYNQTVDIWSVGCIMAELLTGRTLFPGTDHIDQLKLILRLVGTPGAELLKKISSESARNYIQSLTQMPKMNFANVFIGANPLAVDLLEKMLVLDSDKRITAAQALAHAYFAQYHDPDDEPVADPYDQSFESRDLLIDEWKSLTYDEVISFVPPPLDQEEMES

Row | IC50 (ROCK2) [µM] | IC50 (MAPK14) [µM] | IC50 (EGFR) [µM] | SMILES
1 | 0.107 | – | – | Cc1cncc2cccc(S(=O)(=O)N3CCNCC(C)C3)c12 (stereo unspecified)
2 | – | 100 | – | Cc1cncc2cccc(S(=O)(=O)N3CCCNC[C@@H]3C)c12
3 | 0.0429 | – | – | C#Cc1cncc2cccc(S(=O)(=O)N3CCCN(C(=O)CN)C[C@@H]3C)c12
4 | 0.006 | – | – | C#Cc1cncc2cccc(S(=O)(=O)N3CCCNC[C@@H]3C)c12
5 | 0.0122 | – | – | C[C@H]1CNCCCN1S(=O)(=O)c1cccc2cncc(Cl)c12
6 | 0.0806 | – | – | Cc1cncc2cccc(S(=O)(=O)N3CCCNC(C)C3)c12 (stereo unspecified)
7 | 0.426 | – | – | C[C@H]1CNCCCN1S(=O)(=O)c1cccc2cncc(C#N)c12
8 | 0.162 | > 100 | 100 | CC(C)(N)[C@H]1CC[C@H](C(=O)Nc2ccncc2)CC1
9 | 0.0429 | – | – | C[C@H]1CN(C(=O)CN)CCCN1S(=O)(=O)c1cccc2cncc(Br)c12
10 | 0.00583 | – | – | C[C@H]1CNCCCN1S(=O)(=O)c1cccc2cncc(Br)c12
11 | 0.527 | – | – | NCC(=O)N1CCCN(S(=O)(=O)c2cccc3cnccc23)CC1
12 | 0.123 | – | – | Cc1cncc2cccc(S(=O)(=O)N3CCNC(C)CC3)c12 (stereo unspecified)
13 | 0.0118 | – | – | Cc1cncc2cccc(S(=O)(=O)N3CCCN(C(=O)CN)C[C@@H]3C)c12
14 | 0.113 | – | – | CC[C@H]1CNCCCN1S(=O)(=O)c1cccc2cncc(C)c12
15 | 2.75 | – | – | C[C@H]1CNCCCN1S(=O)(=O)c1cccc2cncc(O)c12
16 | 0.804 | – | – | Cc1cncc2cccc(S(=O)(=O)N3CCCNC[C@@H]3C(C)C)c12
17 | 0.0968 | – | – | Cc1cncc2cccc(S(=O)(=O)N3CCCNCC3)c12
18 | 0.0376 | – | – | Cc1cncc2cccc(S(=O)(=O)N3CCCN(C(=O)CN)CC3)c12
19 | 0.656 | – | – | CCc1cncc2cccc(S(=O)(=O)N3CCCNC[C@@H]3C)c12
